Assay results taken from US9932328B2, “3-(6-alkoxy-5-chlorobenzo[d]isoxazol-3-yl)propanoic acid useful as kynurenine monooxygenase inhibitors” (GlaxoSmithKline Intellectual Property Development Limited, priority 2014, dated 2018).
Several values for one entry are separate records, joined by “and”; a condition that tells them apart may be missing. Equal values may be shown once.

Molecular target: T1, human KMO (Homo sapiens, UniProt O15229)
T1 construct: Full length human KMO was amplified by PCR; made in house; host or cells: Spodoptera frugiperda (Sf9) cells, baculovirus; used as purified membranes
T1 sequence (O15229 whole entry): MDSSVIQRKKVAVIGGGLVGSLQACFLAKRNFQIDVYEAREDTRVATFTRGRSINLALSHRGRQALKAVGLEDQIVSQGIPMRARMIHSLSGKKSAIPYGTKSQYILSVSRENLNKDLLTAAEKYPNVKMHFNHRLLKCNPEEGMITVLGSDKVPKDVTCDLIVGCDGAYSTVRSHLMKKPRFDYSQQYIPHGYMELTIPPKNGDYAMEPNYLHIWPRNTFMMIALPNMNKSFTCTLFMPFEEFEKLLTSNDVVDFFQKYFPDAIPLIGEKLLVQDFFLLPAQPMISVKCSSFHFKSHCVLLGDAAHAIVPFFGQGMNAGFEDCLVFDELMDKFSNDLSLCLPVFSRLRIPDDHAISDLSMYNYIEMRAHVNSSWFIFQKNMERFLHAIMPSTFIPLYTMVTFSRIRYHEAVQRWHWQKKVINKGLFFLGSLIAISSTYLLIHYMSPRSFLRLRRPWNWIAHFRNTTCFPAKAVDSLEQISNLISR
Experiment: KMO MS Rapidfire functional assay (RapidFire high-throughput mass spectrometry, Method 1 or Method 2)
Format: biochemical
Conditions: in at least one of the MS Rapidfire assays (Method 1 or 2), isolated human KMO-membranes, 10 μM Kynurenine, 200 μM NADPH, values exemplary only; for IC50: read-out: median pIC50 (converted)
Description: KMO inhibition can be determined by MS Rapidfire assay performed on the human cloned enzyme as described herein.
L-Kynurenine (Kyn), 3-hydroxy-DL-kynurenine (3-HK), β-Nicotinamide adenine dinucleotide 2′-phosphate reduced tetrasodium salt hydrate (NADPH), 4-(2-hydroxyethyl)piperazine-1-ethanesulfonic acid (Hepes), DL-dithiothreitol (DTT), ethylenediaminetetraacetic acid (EDTA), CHAPS and trifluoroacetic acid (TFA) were purchased from Sigma-Aldrich Ltd. (Gillingham, Dorset, UK). HPLC-grade acetonitrile and formic acid were supplied by Fisher Scientific (Loughborough, UK).
Full length human KMO was amplified by PCR from pcDNA5/FRT/V5-His-TOPO/hKMO (vector supplied by the University of Edinburgh) and cloned into pGEX6P-1 (GE Healthcare) using BamH1 and Sal1 restriction sites. DNA encoding the N-terminal glutathione-S-transferase (GST) tag, followed by a Pre-Scission protease cleavage site, and the full length KMO was amplified by PCR from pGEX6P-1-KMO and cloned into pFastbac1 (Invitrogen) using Xbal and EcoR1 restriction sites.
pFastbac1 GST-KMO was transposed into the baculovirus genome using the BAC-to-BAC technology (Invitrogen) and bacmid DNA was prepared and transfected into Spodoptera frugiperda (Sf9) cells using Cellfectin II (Invitrogen).
A P1 virus stock was generated from a single clone and used to infect 3× 1.5 L cultures of Sf9 cells in 3 L Corning Fernbach flasks. […] Cells were harvested after 48 hours and disrupted by blending in 50 mM Hepes, pH 7.4, 1 mM EDTA buffer containing protease inhibitors. A low speed spin (400 g) was used to remove cell debris, followed by a high speed spin (75 000 g) to pellet the membranes. The membranes were purified in a discontinuous sucrose density gradient by re-suspending in 10% (w/v) sucrose and layering over 40% (w/v) sucrose, both in the above buffer. This was centrifuged at 150 000 g and the purified membranes were taken from the interface, collected by centrifugation at 100 000 g, resuspended in buffer and aliquoted for storage at −80° C.
11 point, 3-fold serial dilutions of test compounds were prepared in DMSO and 100 nL of these solutions were dispensed into 384-well V-base polypropylene plates (Greiner Bio-one, Stonehouse, UK) using an Echo 555 acoustic dispenser (Labcyte, Sunnyvale, Calif.). This gave a final assay concentration range between 100 μM and 1.7 nM in 10 μL final assay volume (see below). 100 nL DMSO was dispensed into columns 6 and 18 for high and low controls, respectively, with prior inactivation of the enzyme in column 18 by pre-dispense of 30 μL of 0.5% (v/v) TFA.
Conditions for the assay of human KMO using isolated KMO-membranes were 50 mM Hepes, pH 7.5, 2 mM DTT, 1 mM EDTA, 100 μM CHAPS, 200 μM NADPH, 10 μM Kynurenine and 8 μg/ml KMO-membranes in a total reaction volume of 10 μL.
Assays were performed by initially dispensing 5 μL of a 2× Enzyme solution (16 μg/ml KMO-membranes in 50 mM Hepes, pH 7.5, 2 mM DTT, 2 mM EDTA, 200 μM CHAPS) into plates containing 100 nL compounds and incubating for 10 min at ambient temperature. Reactions were initiated by addition of 5 μL of 2× Substrate solution (400 μM NADPH, 20 μM Kynurenine in 50 mM Hepes, pH 7.5, 2 mM DTT) and incubated for 2 h at room temperature before quenching the reaction with 30 μL of 0.5% (v/v) TFA. Plates were centrifuged at 2500 rpm for 10 min before analysis. All additions were made using a Multidrop Combi dispenser (Thermo Fisher Scientific).
Quenched assay plates were transferred to a high-throughput RapidFire200 integrated autosampler/solid-phase extraction (SPE) system (Agilent Technologies, Wakefield, Mass.).

SMILES | IC50 | median pIC50
CCc1ccc(C(C)Oc2cc3onc(CCC(=O)O)c3cc2Cl)nc1 (single isomer, unassigned) [Example 29, 3-{5-Chloro-6-[1-(5-ethylpyridin-2-yl)ethoxy]-1,2-benzoxazol-3-yl}propanoic acid] | 10 nM | 
CCc1cccc(C(C)Oc2cc3onc(CCC(=O)O)c3cc2Cl)n1 (single isomer, unassigned) [Example 31, 3-{5-Chloro-6-[1-(6-ethylpyridin-2-yl)ethoxy]-1,2-benzoxazol-3-yl}propanoic acid] | 10 nM | 
CC(Oc1cc2onc(CCC(=O)O)c2cc1Cl)c1cccnn1 (single isomer, unassigned) [Example 22, 3-(5-chloro-6-(1-(pyridazin-3-yl)ethoxy)benzo[d]isoxazol-3-yl)propanoic acid] | ≤ 10 nM | 
CCC(Oc1cc2onc(CCC(=O)O)c2cc1Cl)c1ccccn1 (single isomer, unassigned) [Example 25, 3-(5-chloro-6-(1-(pyridin-2-yl)propoxy)benzo[d]isoxazol-3-yl)propanoic acid] | ≤ 10 nM and 3.98 nM | 
CCC(Oc1cc2onc(CCC(=O)O)c2cc1Cl)c1ccc(C)cn1 (single isomer, unassigned) [Example 23, 3-(5-chloro-6-(1-(5-methylpyridin-2-yl)propoxy)benzo[d]isoxazol-3-yl)propanoic acid] | ≤ 10 nM | 
CCC(Oc1cc2onc(CCC(=O)O)c2cc1Cl)c1ncc(Cl)cn1 (single isomer, unassigned) [Example 51, 3-{5-Chloro-6-[1-(5-chloropyrimidin-2-yl)propoxy]-1,2-benzoxazol-3-yl}propanoic acid] | 10 nM | 
CCC(Oc1cc2onc(CCC(=O)O)c2cc1Cl)c1ccc(Cl)cn1 (single isomer, unassigned) [Example 27, 3-(5-chloro-6-(1-(5-chloropyridin-2-yl)propoxy)benzo[d]isoxazol-3-yl)propanoic acid] | ≤ 10 nM | 
O=C(O)CCc1noc2cc(OCc3cccnn3)c(Cl)cc12 [Example 13, 3-(5-chloro-6-(pyridazin-3-ylmethoxy)benzo[d]isoxazol-3-yl)propanoic acid] | ≤ 10 nM | 
Cc1cnc(C(C)Oc2cc3onc(CCC(=O)O)c3cc2Cl)nc1 (single isomer, unassigned) [Example 39, 3-{5-Chloro-6-[1-(5-methylpyrimidin-2-yl)ethoxy]-1,2-benzoxazol-3-yl}propanoic acid] | 10 nM | 
O=C(O)CCc1noc2cc(OCc3ccccn3)c(Cl)cc12 [Example 2, 2-amino-2-(hydroxymethyl)propane-1,3-diol 3-(5-chloro-6-(pyridin-2-ylmethoxy)benzo[d]isoxazol-3-yl)propanoate] | ≤ 10 nM | 
CC[C@H](Oc1cc2onc(CCC(=O)O)c2cc1Cl)c1ncccn1 (single isomer, unassigned) [Example 43] | 10 nM | 
CCc1coc(C(C)Oc2cc3onc(CCC(=O)O)c3cc2Cl)n1 (single isomer, unassigned) [Example 41, 3-{5-Chloro-6-[1-(4-ethyl-1,3-oxazol-2-yl)ethoxy]-1,2-benzoxazol-3-yl}propanoic acid] | 10 nM | 
CCC(Oc1cc2onc(CCC(=O)O)c2cc1Cl)c1ccc(C)nn1 (single isomer, unassigned) [Example 47, 3-{5-Chloro-6-[1-(6-methylpyridazin-3-yl)propoxy]-1,2-benzoxazol-3-yl}propanoic acid] | 10 nM | 
Cc1ccc([C@@H](C)Oc2cc3onc(CCC(=O)O)c3cc2Cl)nn1 [Example 20, (R)-3-(5-chloro-6-(1-(6-methylpyridazin-3-yl)ethoxy)benzo[d]isoxazol-3-yl)propanoic acid] | ≤ 10 nM | 8.7
CCC(Oc1cc2onc(CCC(=O)O)c2cc1Cl)c1ncc(C)cn1 (single isomer, unassigned) [Example 49, 3-{5-Chloro-6-[1-(5-methylpyrimidin-2-yl)propoxy]-1,2-benzoxazol-3-yl}propanoic acid] | 10 nM | 
O=C(O)CCc1noc2cc(OCc3ccc(Cl)cn3)c(Cl)cc12 [Example 7, 2-amino-2-(hydroxymethyl)propane-1,3-diol 3-(5-chloro-6-((5-chloropyridin-2-yl)methoxy)benzo[d]isoxazol-3-yl)propanoate] | 2.51 nM | 
Cc1ncc(C(C)Oc2cc3onc(CCC(=O)O)c3cc2Cl)o1 (single isomer, unassigned) [Example 35, 3-{5-Chloro-6-[1-(2-methyl-1,3-oxazol-5-yl)ethoxy]-1,2-benzoxazol-3-yl}propanoic acid] | 10 nM | 
CC(Oc1cc2onc(CCC(=O)O)c2cc1Cl)c1ncc(Cl)cn1 (single isomer, unassigned) [Example 37, 3-{5-Chloro-6-[1-(5-chloropyrimidin-2-yl)ethoxy]-1,2-benzoxazol-3-yl}propanoic acid] | 10 nM | 
CCC(Oc1cc2onc(CCC(=O)O)c2cc1Cl)c1cccnn1 (single isomer, unassigned) [Example 46, 3-{5-Chloro-6-[1-(pyridazin-3-yl)propoxy]-1,2-benzoxazol-3-yl}propanoic acid] | 10 nM | 
